Test results taken from US12594249B2 (ThermoLife International, LLC, priority 2023, dated 2026).
Converted amounts (≈) assume the structure as drawn.

Columns and labels:
[1] = tested on: chronic knee and shoulder pain; test: case report: oral ingestion by a person with chronic knee and shoulder pain; type: in vivo, human; conditions: 1 gram twice per day
[2] = tested on: exercise capacity and recovery; test: case report: exercise performance and recovery of a subject who regularly trains (treadmill, arm curls test, soreness); type: in vivo, human; conditions: for arm curls test: maximum number of bicep curl repetitions in 30 seconds: 40 lb dumbbell; for arm curls test: maximum number of bicep curl repetitions in 30 seconds / time to exhaustion on the treadmill: 1 gram doses the day/night before and 1 hour before training; for time to recovery (measured by muscle soreness and discomfort): after training; for time to exhaustion on the treadmill: Ifit treadmill, 0 elevation, 5 miles per hour
[3] = solubility of 2 g in 200 ml saturated citric acid solution (pH=3), filtration, visual; conditions: for appearance of liquid that passed through the filter: 2 grams in 200 ml saturated citric acid solution
Description: The resulting acidic solution was then passed out by a filter. […]

[4] = dissolution of 1 g powder in 100 ml water, visual, with and without stirring, centrifugation and filtration; conditions: for appearance of filtrate / solid left on the filter paper: centrifuged at 1000 rpm for 10 seconds, filtered; for visible dissolution in water without stirring: not stirred, one minute (phenoxide), 10 minutes (curcumin); for solubility in water (visual): FIG. 6 (0.5 g in 50 ml), FIGS. 7 and 8 (1 g in 100 ml)
[5] = standard conditions; cited from earlier work
[6] = in vivo; cited from earlier work
[7] = Lu et al. 2020, cited from earlier work

solubility in water with stirring ([4]; 1 g in 100 ml water, stirring 1200 rpm) | SMILES | onset of improvement in symptoms [1] | pain reduction during the next 30 days ([1]; 30 days) | arm curls test: maximum number of bicep curl repetitions in 30 seconds [2] | effect on exercise capacity and recovery (summary) ([2]; person) | time to recovery (measured by muscle soreness and discomfort) ([2]; person) | soreness the day after training ([2]; person, day after training) | time to exhaustion on the treadmill ([2]; person) | appearance of liquid that passed through the filter [3] | solubility at acidic pH (conclusion) ([3]; saturated citric acid solution) | appearance of filtrate ([4]; 1 g in 100 ml water) | solid left on the filter paper ([4]; 1 g in 100 ml water) | visible dissolution in water without stirring ([4]; 1 g in 100 ml water) | time for all 1 gram to be dissolved in 100 ml of water ([4]; stirring at 1200 rpm with a magnetic stirrer) | solubility in water (visual) [4] | solubility in ethanol [5] | half-life [6] | solubility in Phosphate buffer ([7]; Phosphate buffer) | solubility in water ([7]; water)
– | COc1cc(/C=C/C(=O)/C=C(O)/C=C/c2ccc(O)c(OC)c2)ccc1O.N.N [ammonium phenoxide of curcumin] | on the second day | continued showing improvement | 14 repetitions | increased their exercise capacity and reduced the needed time for recovery | 1 days | noticeably lower | 15.5 min | characteristic orange color of curcumin | increased solubility | the color of curcumin | no solid matter was left on the filter paper | visible at one minute | less than 10 seconds | a lot more water-soluble | – | – | – | –
no solubility even with stirring | COc1cc(/C=C/C(=O)CC(=O)/C=C/c2ccc(O)c(OC)c2)ccc1O [curcumin] | – | – | 11 repetitions | no effect | 2 days | – | 13 min | totally clear | – | clear and lacked color | all of the curcumin powder was left on the filter paper | no visible sign of curcumin dissolving in water | – | low solubility | 1000 µg/mL (≈ 2710 µM) | ~7 h | 0.310 µg/mL (≈ 0.842 µM) | 1.622 µg/mL (≈ 4.4 µM)
